Experimental data published in patent US20240132431A1, “METHOD FOR ALKYLATING ACIDIC FUNCTIONAL GROUP” (Chugai Seiyaku Kabushiki Kaisha, priority 2021, published 2024).

Target: T1, Bcl-2 protein (Recombinant Human Bcl-2 Protein) (Homo sapiens, UniProt P10415)
T1 construct: purchased Novus NBP2-34889
Assay: Binding evaluation of mixture library compounds to Bcl-2 using AS-MS (affinity selection mass spectrometry)
Conditions: ASMS Ratio(%)=(A−C)/B×100; for ASMS ratio (%) n = 1: replicate n = 1; for ASMS ratio (%) n = 2: replicate n = 2
Protocol: For one well of MICROPLATE, 96-well, PP, V-BOTTOM (Greiner bio-one, 651201), DMSO solutions of 12 mixtures (prepared to approximately 0.58 mM based on calculations from the average molecular weight of each mixture), in each of which 100 compounds are mixed, were each dispensed, and dispensed into a total of 12 wells, where the 12 mixtures are mixAI-B4J-01, mixAI-B1M-01, mixAI-B1K-01, mixAI-B10-01, mixAI-B1A-01, mixAI-B3A-01, mixAI-B21-01, mixAI-B2L-01, mixAI-B2N-01, mixAI-B2A-01, mixAI-B2Q-01, and mixAI-B2R-01 listed in [Table AI-03-B4J-01], [Table AI-03-B1M-01], [Table AI-03-B1K-01], [Table AI-03-B10-01], [Table AI-03-B1A-01], [Table AI-03-B3A-01], [Table AI-03-B2I-01], [Table AI-03-B2L-01], [Table AI-03-B2N-01], [Table AI-03-B2A-01], [Table AI-03-B2Q-01], and [AI-03-B2R-01] shown in Example 6. Using the LABCYTE ECHO® 555 Acoustic Dispensing System (BECKMAN COULTER), 70 nL was collected from each of the 12 wells into one arbitrary well to prepare a sample solution with 1200 compounds in the mixed state (the presence of 1152 compounds had already been identified when prepared in Example 6-5-3). (In the present specification, the mixture collected in this one well is referred to as one library.) Furthermore, a Bcl-2 protein (Novus, NBP2-34889, Recombinant Human Bcl-2 Protein, Lot E60145051) (19.2 μL) that had been prepared in advance to be 20.9 μM using a Tris-HCl buffer (25 mM Tris-HCl pH 7.4, 150 mM NaCl, 0.025% Tween-20, 1 mM DTT) was added to the well in which 1200 compounds (the presence of 1152 compounds had already been identified when prepared in Example 6-5-3) were dispensed (final compound concentration […], final Bcl-2 concentration 20 μM), and the mixture was incubated in the dark at 23° C. for 1 hour. Next, using the 96-well MacroSpin column, P-2 Material (Harvard, 74-5655) that had been swollen, conditioning of the 96-well MacroSpin column was performed three times by centrifugation with 200 μL of an assay buffer (25 mM Tris-HCl pH 7.4, 150 mM NaCl, 0.025% Tween-20, 1 mM DTT), 2000 XG, 4° C., 2 min. Subsequently, 20 μL of the sample after incubation was added to the 96-well MacroSpin column, P-2 Material, that had been conditioned, and SEC treatment was performed by centrifugation at 2000×G for 2 minutes. To the liquid passed from the SEC, 32 μL of a 1:1 mixed solution of acetonitrile and methanol (LC/MS grade, Fujifilm Wako Pure Chemical Corporation) was added, the mixture was centrifuged at 1800×G, 4° C., 5 min, and the supernatant was used as analysis sample ASMS (A), while a sample that had been prepared by the same operations at 1200 compounds/well and to which only the Tris-HCl buffer had been added without the Bcl-2 protein was incubated under the same conditions, no 96-well MacroSpin column treatment was performed, the same organic solvent was added, and the supernatant solution obtained by centrifugation was used as STD (B). Next, a sample that had been prepared by the same operations at 1200 compounds/well and to which only the Tris-HCl buffer had been added without the Bcl-2 protein was incubated under the same conditions, the same 96-well MacroSpin column treatment was performed, the same organic solvent was added, and the supernatant solution obtained by centrifugation was used as BK (C), and measured by reversed phase LC/MS.
Then, analysis of the 1200 compounds was carried out for samples A, B, and C with TraceFinder 5.1 (Thermo Fisher Scientific) and CHANCE Software (in-house), and the ASMS Ratio (%) was calculated according to the following calculation formula.
Calculation formula: ASMS Ratio(%)=(A−C)/B×100

[1] = AS-MS, mixture of 1200 compounds, Bcl-2
[2] = AS-MS on the mixture of 1200 library compounds

T1 sequence (P10415 whole entry): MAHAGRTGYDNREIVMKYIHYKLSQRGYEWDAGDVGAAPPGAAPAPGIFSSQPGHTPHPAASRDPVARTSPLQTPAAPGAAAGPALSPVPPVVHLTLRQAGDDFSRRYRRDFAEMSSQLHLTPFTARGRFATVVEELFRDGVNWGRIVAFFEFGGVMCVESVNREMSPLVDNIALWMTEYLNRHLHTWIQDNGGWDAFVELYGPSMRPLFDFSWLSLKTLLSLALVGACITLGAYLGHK

Row | Substance | ASMS ratio (%) n = 1 [1] | ASMS ratio (%) n = 2 [1] | ASMS ratio (%) n = 1 [2] | ASMS ratio (%) n = 2 [2]
1 | 6-[4-[4-(5-Ethoxypyridin-3-yl)naphthalene-1-carbonyl]piperazin-1-yl]-N-propylpyridazine-3-carboxamide [B1M072-01] | 0.0% | 1.9% | – | –
2 | 6-[4-[4-(5-Ethoxypyridin-3-yl)thiophene-2-carbonyl]piperazin-1-yl]-N-propylpyridazine-3-carboxamide [B1M082-01] | – | – | 0.0% | 0.0%
3 | 6-[4-[5-[2-(3-Ethoxyphenyl)ethynyl]pyridine-3-carbonyl]piperazin-1-yl]-N-propylpyridazine-3-carboxamide [B1M001-01] | 0.0% | 0.0% | – | –
4 | 6-[4-[5-[2-(5-Ethoxypyridin-3-yl)ethynyl]pyridine-3-carbonyl]piperazin-1-yl]-N-propylpyridazine-3-carboxamide [B1M056-01] | 0.5% | 0.0% | – | –
5 | 6-[4-[[2-(3-Ethoxyphenyl)phenyl]methyl]piperazin-1-yl]-N-propylpyridazine-3-carboxamide [B1M042-01] | 0.0% | 0.0% | – | –
6 | 6-[4-[[2-[2-(3-Ethoxyphenyl)ethynyl]phenyl]methyl]piperazin-1-yl]-N-propylpyridazine-3-carboxamide [B1M053-01] | −3.0% | −3.1% | – | –
7 | 6-[4-[[2-[2-(5-Ethoxypyridin-3-yl)ethynyl]phenyl]methyl]piperazin-1-yl]-N-propylpyridazine-3-carboxamide [B1M055-01] | 3.9% | −1.2% | – | –
8 | 6-[4-[[3-(3-Ethoxyphenyl)-5-propan-2-yloxyphenyl]methyl]piperazin-1-yl]-N-propylpyridazine-3-carboxamide [B1M016-01] | 0.0% | 0.0% | – | –
9 | 6-[4-[[3-(5-Ethoxypyridin-3-yl)-5-(trifluoromethoxy)phenyl]methyl]piperazin-1-yl]-N-propylpyridazine-3-carboxamide [B1M035-01] | 2.9% | −1.7% | – | –
10 | 6-[4-[[3-(5-Ethoxypyridin-3-yl)-5-(trifluoromethyl)phenyl]methyl]piperazin-1-yl]-N-propylpyridazine-3-carboxamide [B1M029-01] | 3.0% | −0.6% | – | –
11 | 6-[4-[[3-(5-Ethoxypyridin-3-yl)-5-propan-2-yloxyphenyl]methyl]piperazin-1-yl]-N-propylpyridazine-3-carboxamide [B1M066-01] | 0.0% | 4.4% | – | –
12 | 6-[4-[[3-Ethoxy-5-(3-ethoxyphenyl)phenyl]methyl]piperazin-1-yl]-N-propylpyridazine-3-carboxamide [B1M010-01] | 0.0% | 0.0% | – | –
13 | 6-[4-[[3-Ethoxy-5-(5-ethoxypyridin-3-yl)phenyl]methyl]piperazin-1-yl]-N-propylpyridazine-3-carboxamide [B1M012-01] | −3.5% | −2.3% | – | –
14 | 6-[4-[[4-(3-Ethoxyphenyl)-2,6-dimethoxyphenyl]methyl]piperazin-1-yl]-N-propylpyridazine-3-carboxamide [B1M021-01] | 0.0% | 0.0% | – | –
15 | 6-[4-[[4-(3-Ethoxyphenyl)-2-ethylphenyl]methyl]piperazin-1-yl]-N-propylpyridazine-3-carboxamide [B1M070-01] | 0.0% | 0.0% | – | –
16 | 6-[4-[[4-(3-Ethoxyphenyl)-2-methoxyphenyl]methyl]piperazin-1-yl]-N-propylpyridazine-3-carboxamide [B1M094-01] | – | – | −1.5% | −2.1%
17 | 6-[4-[[4-(3-Ethoxyphenyl)-3-methylphenyl]methyl]piperazin-1-yl]-N-propylpyridazine-3-carboxamide [B1M059-01] | −5.5% | −7.2% | – | –
